Drawing on patent US11466005B2, “Tricyclic compounds” (JACOBIO PHARMACEUTICALS CO., LTD., priority 2018, dated 2022), this text covers IC50 for 18 molecules.

One assay concerns MV-4-11 cells. Description: MV-4-11 cell proliferation assay (MTS). Type of assay: cell-based. The conditions noted are these: Homo sapiens, MV4-11, 72 h, 3 days culture. The procedure:
2. Cell Proliferation Assay
MV-4-11 cell proliferation analysis was conducted by the MIS (3-(4,5-dimethylthiazol-2-yl)-5-(3-carboxymethoxyphenyl)-2-(4-sulfophenyl)-2H-tetrazolium, inner salt) assay. Briefly, MV-4-11 cells will be cultured in IMDM (Iscove's Modified Dubecco's Medium) medium supplemented with 10% (v/v) FBS (fetal bovine serum), under the temperature of 37° C., […] and 95% humidity. The cells will be harvested respectively during the logarithmic growth period and counted with hemocytometer. The cell viability is over […] by trypan blue exclusion. Adjust MV-4-11 cells concentrations to 1.2×10^5 cells/mL with complete medium. Add 100 μL cell suspensions to 96-well plates (triplicates for each cell concentration), the final cell densities are 1.2×10^4 cells/well. The next day, dissolve the test compound with DMSO as stock solution. Dispense 5 μL of the stock solution in 1 mL culture media and add 25 μL drug media into 96-well plates. After serially diluting with culture media, the final concentration of the compound will be 0, 0.03, 0.1, 0.3, 1, 3, 10, 30, 100 nM. The plates will be cultured for 3 days, then measured by means of MTS assay. Add PMS (phenazinium methosulfate) solution to MITS solution (1:20) immediately before addition to the culture plate containing cells. Pipet 20 μL of the combined MTS/PMS Solution into each well of the 96 well assay plate containing 100 μL of cells in culture medium. Incubate the plate for 1-4 hours at 37° C. in a humidified, 5% CO2 atmosphere. Record the absorbance at 490 nm using a microplate spectrophotometer (Envision®, PeikinElmer). Fit the data using GraphPad 5.0 and obtain IC50 values.

The target in another assay is BRD4(BD1) (Homo sapiens (Human), UniProt O60885). Briefly: BRD4(BD1) biochemical binding assay (HTRF). Particulars: biotinylated H4 derived acetylated peptide. The protocol:
1. BRD4(BD1) Binding Assays
The BRD4(BD1) biochemical binding assay was performed by Sundia MediTech Co. Ltd. in 384-well white plate (OptiPlate-384, PerkinElmer) using HTRF technology.
Briefly, 20 nL of compounds were transferred to the 384-well plate by Echo® 550 liquid handler (Labcyte, USA), then 5 μL of BRD4(BD1) (Reaction Biology Company, RD-11-157) solution or the assay buffer was added to each well. After incubating at RT for 15 min, 5 μL of the biotinylated H4 derived acetylated peptide (synthesized by GL Biochem (Shanghai) Ltd) and 10 μL of the detection solution (Cisbio Assay) were added to each well. After incubating for 1 h at RT, the HTRF signal was measure at 615 nm and 665 nm using the EnVision Multilabel Plate Reader (PerkinElmer, USA). Results were analyzed with a two-wavelength signal ratio: intensity (665 nm)/intensity (615 nm). The inhibition percentage in the presence of the compound was calculated according to the equation, Percent inhibition=(Max−Signal)/(Max−Min)*100%. Fit the data in GraphPad Prism V5.0 software (San Diego, Calif.) to obtain IC50 values with nonlinear regression analysis using equation, Y=Bottom+(Top−Bottom)/(1+10^((Log IC50−X)×HillSlope), where Y stands for inhibition percentage and X stands for compound concentration.
In general terms: Time-resolved FRET reads energy transfer from a long-lived donor to a nearby acceptor.

The term IC50 denotes the midpoint of a concentration-inhibition curve. Higher therefore signals weaker potency. Regarding `Cc1noc(C)c1-c1cnc2c3c(c(C(C)(C)O)nn3C)n([C@H](c3ccccc3)C3CCOCC3)c2c1` [Compound 1, (S)-2-(6-(3,5-dimethylisoxazol-4-yl)-1-methyl-4-(phenyl(tetrahydro-2H-pyran-4-yl)methyl)-1,4-dihydropyrazolo[3′,4′:4,5]pyrrolo[3,2-b]pyridin-3-yl)propan-2-ol], the IC50 worked out at 0.89 nM in the assay with MV-4-11 cells and 0.48 nM on BRD4(BD1). Take `Cc1noc(C)c1-c1cnc2c3c(c(C(C)(C)O)nn3C)n([C@H](c3ncccc3F)C3CCOCC3)c2c1` [Compound 2, (S)-2-(6-(3,5-dimethylisoxazol-4-yl)-4-((3-fluoropyridin-2-yl)(tetrahydro-2H-pyran-4-yl)methyl)-1-methyl-1,4-dihydropyrazolo[3′,4′:4,5]pyrrolo[3,2-b]pyridin-3-yl)propan-2-ol]: the IC50 was 0.72 nM with MV-4-11 cells and 0.35 nM on BRD4(BD1). On the same counts, the results for `Cc1nnn(C)c1-c1cnc2c3c(c(C(C)(C)O)nn3C)n(C(CCC(F)(F)F)c3ccccc3)c2c1` (stereo not drawn) [Compound 3, 2-(6-(1,4-Dimethyl-1H-1,2,3-triazol-5-yl)-1-methyl-4-(4,4,4-trifluoro-1-phenylbutyl)-1,4-dihydropyrazolo[3′,4′:4,5]pyrrolo[3,2-b]pyridin-3-yl)propan-2-ol] are 6.06 nM and 0.66 nM.

Turning to `Cc1nnn(C)c1-c1cnc2c3c(c(C(C)(C)O)nn3C)n(C(CCC(F)(F)F)c3ncccc3F)c2c1` (stereo not drawn) [Compound 4, 2-(6-(1,4-Dimethyl-1H-1,2,3-triazol-5-yl)-1-methyl-4-(4,4,4-trifluoro-1-(3-fluoropyridin-2-yl)butyl)-1,4-dihydropyrazolo[3′,4′:4,5]pyrrolo[3,2-b]pyridin-3-yl)propan-2-ol], the figures for the IC50 in the assay with MV-4-11 cells and at BRD4(BD1) were 3.13 nM and 0.57 nM, respectively. On the same counts, the results for `Cc1cccnc1C(C1CCOCC1)n1c2cc(-c3c(C)nnn3C)cnc2c2c1c(C(C)(C)O)nn2C` (stereo not drawn) [Compound 5, 2-(6-(1,4-Dimethyl-1H-1,2,3-triazol-5-yl)-1-methyl-4-((3-methylpyridin-2-yl)(tetrahydro-2H-pyran-4-yl)methyl)-1,4-dihydropyrazolo[3′,4′:4,5]pyrrolo[3,2-b]pyridin-3-yl)propan-2-ol] are 1.24 nM and 0.59 nM. On the same counts, the results for `Cc1nnn(C)c1-c1cnc2c3c(c(C(C)(C)O)nn3C)n([C@H](c3ccccc3)C3CCOCC3)c2c1` [Compound 6, (S)-2-(6-(1,4-dimethyl-1H-1,2,3-triazol-5-yl)-1-methyl-4-(phenyl(tetrahydro-2H-pyran-4-yl)methyl)-1,4-dihydropyrazolo[3′,4′:4,5]pyrrolo[3,2-b]pyridin-3-yl)propan-2-ol] are 1.1 nM and 0.49 nM. As to `Cc1nnn(C)c1-c1cnc2c3c(c(C(C)(C)O)nn3C)n([C@H](c3ncccc3F)C3CCOCC3)c2c1` [Compound 7, (S)-2-(6-(1,4-dimethyl-1H-1,2,3-triazol-5-yl)-4-((3-fluoropyridin-2-yl)(tetrahydro-2H-pyran-4-yl)methyl)-1-methyl-1,4-dihydropyrazolo[3′,4′:4,5]pyrrolo[3,2-b]pyridin-3-yl)propan-2-ol], the results for the IC50 in the assay on MV-4-11 cells and at BRD4(BD1) were 0.7 nM and 0.97 nM, respectively.

For the molecule `COC(=O)c1nn(C)c2c3ncc(-c4c(C)nnn4C)cc3n([C@H](c3ncccc3F)C3CCOCC3)c12` [Compound 7-2, (S)-Methyl 6-(1,4-dimethyl-1H-1,2,3-triazol-5-yl)-4-((3-fluoropyridin-2-yl)(tetrahydro-2H-pyran-4-yl)methyl)-1-methyl-1,4-dihydropyrazolo[3′,4′:4,5]pyrrolo[3,2-b]pyridine-3-carboxylate], inhibition with MV-4-11 cells was half-maximal at 1.11 nM (IC50). On to `Cc1cccnc1C(C1CCOCC1)n1c2cc(-c3c(C)noc3C)cnc2c2c1c(C(C)(C)O)nn2C` (stereo not drawn) [Compound 8, 2-(6-(3,5-dimethylisoxazol-4-yl)-1-methyl-4-((3-methylpyridin-2-yl)(tetrahydro-2H-pyran-4-yl)methyl)-1,4-dihydropyrazolo[3′,4′:4,5]pyrrolo[3,2-b]pyridin-3-yl)propan-2-ol], for which the half-maximal inhibitory concentration (IC50) in the assay with MV-4-11 cells was 31.6 nM; on BRD4(BD1), 12 nM. In the same order, the values of `Cc1ccccc1C(C1CCOCC1)n1c2cc(-c3c(C)noc3C)cnc2c2c1c(C(C)(C)O)nn2C` (stereo not drawn) [Compound 9, 2-(6-(3,5-dimethylisoxazol-4-yl)-1-methyl-4-((tetrahydro-2H-pyran-4-yl)(o-tolyl)methyl)-1,4-dihydropyrazolo[3′,4′:4,5]pyrrolo[3,2-b]pyridin-3-yl)propan-2-ol] are 5.01 nM and 0.99 nM.

`Cc1nnn(C)c1-c1cnc2c3c(c(C(N)=O)nn3C)n(C(c3ncccc3F)C3CCOCC3)c2c1` (stereo not drawn) [Compound 21, 6-(1,4-Dimethyl-1H-1,2,3-triazol-5-yl)-4-((3-fluoropyridin-2-yl)(tetrahydro-2H-pyran-4-yl)methyl)-1-methyl-1,4-dihydropyrazolo[3′,4′:4,5]pyrrolo[3,2-b]pyridine-3-carboxamide] registered a half-maximal inhibitory concentration (IC50) in the assay with MV-4-11 cells of 0.77 nM.

For `COc1ccncc1C(C1CCOCC1)n1c2cc(-c3c(C)nnn3C)cnc2c2c1c(C(C)(C)O)nn2C` (stereo not drawn) [Compound 25, 2-(6-(1,4-dimethyl-1H-1,2,3-triazol-5-yl)-4-((4-methoxypyridin-3-yl)(tetrahydro-2H-pyran-4-yl)methyl)-1-methyl-1,4-dihydropyrazolo[3′,4′:4,5]pyrrolo[3,2-b]pyridin-3-yl)propan-2-ol], inhibition with MV-4-11 cells was half-maximal at 8.25 nM (IC50).

Take `Cc1cc(F)cc(C)c1C(C)n1c2cc(-c3c(C)nnn3C)cnc2c2c1c(C(C)(C)O)nn2C` (stereo not drawn) [Compound 27, 2-(6-(1,4-Dimethyl-1H-1,2,3-triazol-5-yl)-4-(1-(4-fluoro-2,6-dimethylphenyl)ethyl)-1-methyl-1,4-dihydropyrazolo[3′,4′:4,5]pyrrolo[3,2-b]pyridin-3-yl)propan-2-ol]: at BRD4(BD1), the half-inhibitory concentration (IC50) worked out at 17 nM.

Molecule `Cc1nnn(C)c1-c1cnc2c3c(c(NS(C)(=O)=O)nn3C)n([C@H](c3ccccc3)C3CCOCC3)c2c1` [Compound 28, (S)—N-(6-(1,4-dimethyl-1H-1,2,3-triazol-5-yl)-1-methyl-4-(phenyl(tetrahydro-2H-pyran-4-yl)methyl)-1,4-dihydropyrazolo[3′,4′:4,5]pyrrolo[3,2-b]pyridin-3-yl)methanesulfonamide] yielded an IC50 in the assay on MV-4-11 cells of 10.5 nM. Consider `Cc1nnn(C)c1-c1cnc2c3c(c(C(C)(C)O)nn3C)n([C@@H](c3ncccc3F)C3CCOCC3)c2c1` [Compound 30, (R)-2-(6-(1,4-dimethyl-1H-1,2,3-triazol-5-yl)-4-((3-fluoropyridin-2-yl)(tetrahydro-2H-pyran-4-yl)methyl)-1-methyl-1,4-dihydropyrazolo[3′,4′:4,5]pyrrolo[3,2-b]pyridin-3-yl)propan-2-ol], for which, on BRD4(BD1), the half-inhibitory concentration (IC50) turned out to be 3 nM. The same measure, in the same setting: the result for `Cc1noc(C)c1-c1cnc2c3c(c(C(C)(C)O)nn3C)n([C@@H](c3ncccc3F)C3CCOCC3)c2c1` [Compound 31, (R)-2-(6-(3,5-dimethylisoxazol-4-yl)-4-((3-fluoropyridin-2-yl)(tetrahydro-2H-pyran-4-yl)methyl)-1-methyl-1,4-dihydropyrazolo[3′,4′:4,5]pyrrolo[3,2-b]pyridin-3-yl)propan-2-ol] reads 4.6 nM; that for `Cc1nnn(C)c1-c1cnc2c3c(c(CS(C)(=O)=O)nn3C)n(C(c3ccccc3)C3CCOCC3)c2c1` (stereo not drawn) [Compound 33, 6-(1,4-dimethyl-1H-1,2,3-triazol-5-yl)-1-methyl-3-((methylsulfonyl)methyl)-4-(phenyl(tetrahydro-2H-pyran-4-yl)methyl)-1,4-dihydropyrazolo[3′,4′:4,5]pyrrolo[3,2-b]pyridine], 4.67 nM. For `CC(=O)N(c1nn(C)c2c3ncc(-c4c(C)nnn4C)cc3n(C(c3ccccc3)C3CCOCC3)c12)S(C)(=O)=O` (stereo not drawn) [Compound 35, N-(6-(1,4-dimethyl-1H-1,2,3-triazol-5-yl)-1-methyl-4-(phenyl(tetrahydro-2H-pyran-4-yl)methyl)-1,4-dihydropyrazolo[3′,4′:4,5]pyrrolo[3,2-b]pyridin-3-yl)-N-(methylsulfonyl)acetamide], the IC50 with MV-4-11 cells worked out at 15.5 nM.
